# Results published in publication PMC4579270, “Identification and Characterization of an Irreversible Inhibitor of CDK2” (Chemistry & Biology, 2015).
# Key:
# Experiment in all cases: Dundee protein kinase screen
# Format in all cases: biochemical
# SmMLCK = SmMLCK (Homo sapiens, UniProt Q15746); details: read-out: %Remaining activity at 1µM NU6300
# Experimental: (§1) Prior to determining its cellular activity, we carried out a screen to assess its selectivity against a panel of 131 protein kinases under conditions that would not distinguish between a reversible or irreversible mode of action. […] These 13 kinases and 29 additional kinases, selected for their known sensitivity to other inhibitors within the purine series, were then tested in a modified screening format in which the assay was repeated following a 4-hr pre-incubation (Table S3B). […] However, conformational flexibility around the active site may promote such an interaction with a residue from another part of the structure ([Martin et al., 2012]).
# (§2) Table S3, Related to Figure 4. NCL-0006300 protein kinase selectivity. (A) NU6300 was tested at a single concentration of 1µM against 131 protein kinases present in a Dundee protein kinase screen (Bain et al., 2007). Values given are % activity remaining and are the average of duplicate measurements: 0-25% (red), 26-50% (yellow), 51-80% (black) and above 81% (green). The kinase domain sequences (as defined by UniProt) of […]
# (§3) have a lysine residue at a position close to CDK2 Lys88 or Lys89. However, in the structure of tyrosine-protein kinase BTK (PDB ID: 3GEN) the residue equivalent to CDK2 Asp86 is Cys481 and therefore there is the potential for a covalent adduct to be formed through this side chain. Ephrin type-B receptor 3 (UniProt entry P54753) also encodes a cysteine residue (Cys717) that by sequence alignment would be predicted to be close to the CDK2 lysine pair. (B) Selected kinases were re-tested in the Dundee kinase screen against NU6300 at a single concentration of 0.5 µM both in the standard assay format and following a 4 hour pre-incubation in the presence of NU6300. Kinases which have very low activity after the 4 hour incubation so that results might not be wholly reliable are boxed in salmon. Kinases where the activity after a 4 hour pre-incubation is < 50% that in the standard assay format are highlighted in red.
# VEG-FR1 = VEG-FR1 (Homo sapiens, UniProt P17948); details: VEG-FR1, 1µM; read-out: %Remaining activity at 1µM NU6300
# Experimental: as §1, §2, §3
# MINK1 = MINK1 (Homo sapiens, UniProt Q8N4C8); details: MINK1, 1µM; read-out: %Remaining activity at 1µM NU6300
# Sequence of MINK1 (Q8N4C8 whole entry): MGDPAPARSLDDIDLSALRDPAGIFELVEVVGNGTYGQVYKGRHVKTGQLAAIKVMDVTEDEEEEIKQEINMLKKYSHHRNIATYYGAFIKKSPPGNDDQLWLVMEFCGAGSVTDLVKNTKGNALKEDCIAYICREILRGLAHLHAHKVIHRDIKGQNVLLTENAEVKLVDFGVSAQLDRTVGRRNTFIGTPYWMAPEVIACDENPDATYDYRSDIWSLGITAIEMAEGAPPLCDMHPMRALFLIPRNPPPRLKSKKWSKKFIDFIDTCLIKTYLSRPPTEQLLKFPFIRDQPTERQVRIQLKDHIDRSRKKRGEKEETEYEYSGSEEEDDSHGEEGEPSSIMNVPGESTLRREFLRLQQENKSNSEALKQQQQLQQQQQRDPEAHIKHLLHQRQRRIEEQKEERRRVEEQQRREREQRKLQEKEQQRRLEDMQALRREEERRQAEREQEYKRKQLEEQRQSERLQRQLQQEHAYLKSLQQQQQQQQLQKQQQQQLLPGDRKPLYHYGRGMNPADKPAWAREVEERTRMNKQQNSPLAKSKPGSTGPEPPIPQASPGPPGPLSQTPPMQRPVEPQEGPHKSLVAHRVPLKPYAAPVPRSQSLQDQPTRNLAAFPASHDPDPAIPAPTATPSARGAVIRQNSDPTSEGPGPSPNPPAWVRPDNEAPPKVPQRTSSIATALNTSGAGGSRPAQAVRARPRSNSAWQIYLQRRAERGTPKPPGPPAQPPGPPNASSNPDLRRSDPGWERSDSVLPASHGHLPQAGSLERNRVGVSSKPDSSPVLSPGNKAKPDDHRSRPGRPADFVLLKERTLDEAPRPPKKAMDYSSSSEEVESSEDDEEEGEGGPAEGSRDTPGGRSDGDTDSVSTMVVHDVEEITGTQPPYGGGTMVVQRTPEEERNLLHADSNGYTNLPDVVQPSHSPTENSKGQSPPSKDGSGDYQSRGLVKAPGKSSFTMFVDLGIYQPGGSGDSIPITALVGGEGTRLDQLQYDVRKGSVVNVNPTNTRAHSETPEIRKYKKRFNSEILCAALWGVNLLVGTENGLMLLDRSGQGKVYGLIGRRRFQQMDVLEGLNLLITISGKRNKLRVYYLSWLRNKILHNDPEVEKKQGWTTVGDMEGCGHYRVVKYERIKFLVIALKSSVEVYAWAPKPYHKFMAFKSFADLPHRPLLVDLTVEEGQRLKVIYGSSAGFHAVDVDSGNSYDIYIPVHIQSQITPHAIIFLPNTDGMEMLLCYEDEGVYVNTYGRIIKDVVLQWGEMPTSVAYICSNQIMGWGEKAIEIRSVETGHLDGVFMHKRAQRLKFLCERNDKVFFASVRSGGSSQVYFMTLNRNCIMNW
# Experimental: as §1, §2, §3
# DYRK1A = DYRK1A (Homo sapiens, UniProt Q13627); details: read-out: %Remaining activity at 1µM NU6300
# Experimental: as §1, §2, §3
# FGF-R1 = FGF-R1 (Homo sapiens, UniProt P11362); details: FGF-R1, 1µM; read-out: %Remaining activity at 1µM NU6300
# Sequence of FGF-R1 (P11362 22-822): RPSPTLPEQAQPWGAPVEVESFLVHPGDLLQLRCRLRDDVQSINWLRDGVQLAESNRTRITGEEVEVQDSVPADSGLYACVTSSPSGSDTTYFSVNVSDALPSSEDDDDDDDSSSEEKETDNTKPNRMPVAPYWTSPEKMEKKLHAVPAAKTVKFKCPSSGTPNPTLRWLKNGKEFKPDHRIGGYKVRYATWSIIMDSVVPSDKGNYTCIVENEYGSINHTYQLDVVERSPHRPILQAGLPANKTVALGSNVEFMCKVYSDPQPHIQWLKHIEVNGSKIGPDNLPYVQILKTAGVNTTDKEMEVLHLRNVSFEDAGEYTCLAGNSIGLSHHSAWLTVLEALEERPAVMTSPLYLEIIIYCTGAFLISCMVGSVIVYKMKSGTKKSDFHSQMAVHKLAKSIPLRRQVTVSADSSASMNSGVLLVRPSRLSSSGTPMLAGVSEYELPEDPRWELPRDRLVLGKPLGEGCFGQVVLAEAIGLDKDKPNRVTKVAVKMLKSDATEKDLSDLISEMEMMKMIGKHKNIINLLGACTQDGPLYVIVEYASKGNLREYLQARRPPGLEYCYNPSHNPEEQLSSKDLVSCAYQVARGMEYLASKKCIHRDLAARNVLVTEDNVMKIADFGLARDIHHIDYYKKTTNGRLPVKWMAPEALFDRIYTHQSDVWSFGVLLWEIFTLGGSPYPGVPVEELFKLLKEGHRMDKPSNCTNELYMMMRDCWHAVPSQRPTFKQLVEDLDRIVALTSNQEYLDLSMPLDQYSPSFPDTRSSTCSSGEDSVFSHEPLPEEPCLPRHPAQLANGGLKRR
# Experimental: as §1, §2, §3
# PRK2 = PRK2 (Homo sapiens, UniProt Q16513); details: PRK2, 1µM; read-out: %Remaining activity at 1µM NU6300
# Experimental: as §1, §2, §3
# GSK3β = GSK3β (Homo sapiens, UniProt P49841); details: read-out: %Remaining activity at 1µM NU6300
# Experimental: as §1, §2, §3
# TrkA = TrkA (Homo sapiens, UniProt P04629); details: read-out: %Remaining activity at 1µM NU6300
# Experimental: as §1, §2, §3
# SGK1 = SGK1 (Homo sapiens, UniProt O00141); details: SGK1, 1µM; read-out: %Remaining activity at 1µM NU6300
# Sequence of SGK1 (O00141 whole entry): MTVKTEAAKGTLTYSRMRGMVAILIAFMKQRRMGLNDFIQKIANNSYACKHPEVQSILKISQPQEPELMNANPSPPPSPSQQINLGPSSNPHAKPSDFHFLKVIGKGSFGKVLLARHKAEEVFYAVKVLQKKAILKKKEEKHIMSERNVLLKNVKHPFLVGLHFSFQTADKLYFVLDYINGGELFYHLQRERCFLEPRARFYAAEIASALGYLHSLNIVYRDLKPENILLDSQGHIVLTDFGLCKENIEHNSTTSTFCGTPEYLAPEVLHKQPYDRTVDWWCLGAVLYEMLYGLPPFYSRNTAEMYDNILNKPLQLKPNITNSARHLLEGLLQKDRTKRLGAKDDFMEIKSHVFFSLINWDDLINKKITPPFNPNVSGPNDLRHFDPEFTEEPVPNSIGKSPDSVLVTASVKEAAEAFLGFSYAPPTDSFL
# Experimental: as §1, §2, §3
# JAK2 = JAK2 (Homo sapiens, UniProt O60674); details: JAK2, 1µM; read-out: %Remaining activity at 1µM NU6300
# Sequence of JAK2 (O60674 whole entry): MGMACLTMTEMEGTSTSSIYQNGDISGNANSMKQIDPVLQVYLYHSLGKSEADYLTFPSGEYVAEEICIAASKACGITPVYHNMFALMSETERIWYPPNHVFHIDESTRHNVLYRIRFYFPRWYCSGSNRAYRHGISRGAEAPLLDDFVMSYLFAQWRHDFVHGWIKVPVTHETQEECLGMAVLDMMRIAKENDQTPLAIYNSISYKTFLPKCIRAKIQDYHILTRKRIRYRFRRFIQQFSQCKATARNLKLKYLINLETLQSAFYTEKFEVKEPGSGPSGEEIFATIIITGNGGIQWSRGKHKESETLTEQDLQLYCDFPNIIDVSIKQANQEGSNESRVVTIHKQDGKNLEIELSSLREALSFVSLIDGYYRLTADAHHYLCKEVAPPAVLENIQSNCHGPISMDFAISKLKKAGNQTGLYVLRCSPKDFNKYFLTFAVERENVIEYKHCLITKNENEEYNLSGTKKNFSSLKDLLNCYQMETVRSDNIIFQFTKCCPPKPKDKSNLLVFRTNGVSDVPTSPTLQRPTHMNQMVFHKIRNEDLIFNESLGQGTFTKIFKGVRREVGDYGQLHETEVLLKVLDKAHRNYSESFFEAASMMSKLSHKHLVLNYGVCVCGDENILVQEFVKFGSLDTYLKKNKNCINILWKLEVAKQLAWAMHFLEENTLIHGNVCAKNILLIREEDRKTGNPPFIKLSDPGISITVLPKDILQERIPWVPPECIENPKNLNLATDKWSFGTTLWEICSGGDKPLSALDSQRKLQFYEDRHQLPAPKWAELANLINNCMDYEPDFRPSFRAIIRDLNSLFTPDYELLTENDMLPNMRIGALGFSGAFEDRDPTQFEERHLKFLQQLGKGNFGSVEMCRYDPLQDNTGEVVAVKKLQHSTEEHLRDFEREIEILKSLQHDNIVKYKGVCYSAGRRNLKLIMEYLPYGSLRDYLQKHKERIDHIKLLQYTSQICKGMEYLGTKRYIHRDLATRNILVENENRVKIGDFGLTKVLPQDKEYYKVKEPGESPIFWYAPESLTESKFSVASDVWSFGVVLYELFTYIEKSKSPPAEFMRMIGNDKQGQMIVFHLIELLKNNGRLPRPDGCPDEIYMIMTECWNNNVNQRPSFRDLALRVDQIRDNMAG
# Experimental: as §1, §2, §3
# EPH-B3 = molecular target: T1, EPH-B3 (Homo sapiens, UniProt P54753); details: EPH-B3, 1µM; read-out: %Remaining activity at 1µM NU6300
# T1 sequence (P54753 34-998): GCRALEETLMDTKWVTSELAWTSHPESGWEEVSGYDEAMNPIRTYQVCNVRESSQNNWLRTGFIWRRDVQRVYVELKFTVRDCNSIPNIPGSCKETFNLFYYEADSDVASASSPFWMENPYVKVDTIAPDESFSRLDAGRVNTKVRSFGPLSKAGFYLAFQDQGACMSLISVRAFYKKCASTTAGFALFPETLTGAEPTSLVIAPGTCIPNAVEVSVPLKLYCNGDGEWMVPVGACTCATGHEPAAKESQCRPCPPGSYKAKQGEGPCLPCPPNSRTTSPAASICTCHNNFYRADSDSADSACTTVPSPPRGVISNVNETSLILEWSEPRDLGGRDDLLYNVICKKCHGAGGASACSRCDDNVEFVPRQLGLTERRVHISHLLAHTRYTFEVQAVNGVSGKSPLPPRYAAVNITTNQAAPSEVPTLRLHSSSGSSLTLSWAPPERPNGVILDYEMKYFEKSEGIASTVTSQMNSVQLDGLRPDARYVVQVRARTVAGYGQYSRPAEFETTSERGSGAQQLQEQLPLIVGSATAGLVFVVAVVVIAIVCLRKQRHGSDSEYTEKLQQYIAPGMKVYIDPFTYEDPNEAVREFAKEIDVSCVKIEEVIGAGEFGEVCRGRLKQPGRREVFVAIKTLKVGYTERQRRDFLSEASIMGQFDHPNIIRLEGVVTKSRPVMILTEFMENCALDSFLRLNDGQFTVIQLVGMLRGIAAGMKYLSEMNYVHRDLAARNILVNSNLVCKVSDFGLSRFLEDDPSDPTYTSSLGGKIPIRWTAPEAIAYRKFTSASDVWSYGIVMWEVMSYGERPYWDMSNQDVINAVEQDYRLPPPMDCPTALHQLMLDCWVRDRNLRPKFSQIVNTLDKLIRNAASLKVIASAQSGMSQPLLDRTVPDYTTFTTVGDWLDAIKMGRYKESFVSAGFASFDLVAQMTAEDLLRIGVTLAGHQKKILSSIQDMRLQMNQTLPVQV
# Experimental: as §1, §2, §3
# DYRK3 = DYRK3 (Homo sapiens, UniProt O43781); details: DYRK3, 1µM; read-out: %Remaining activity at 1µM NU6300
# Experimental: as §1, §2, §3
# PKCζ = PKCζ (Homo sapiens, UniProt Q05513); details: read-out: %Remaining activity at 1µM NU6300
# Sequence of PKCζ (Q05513 whole entry): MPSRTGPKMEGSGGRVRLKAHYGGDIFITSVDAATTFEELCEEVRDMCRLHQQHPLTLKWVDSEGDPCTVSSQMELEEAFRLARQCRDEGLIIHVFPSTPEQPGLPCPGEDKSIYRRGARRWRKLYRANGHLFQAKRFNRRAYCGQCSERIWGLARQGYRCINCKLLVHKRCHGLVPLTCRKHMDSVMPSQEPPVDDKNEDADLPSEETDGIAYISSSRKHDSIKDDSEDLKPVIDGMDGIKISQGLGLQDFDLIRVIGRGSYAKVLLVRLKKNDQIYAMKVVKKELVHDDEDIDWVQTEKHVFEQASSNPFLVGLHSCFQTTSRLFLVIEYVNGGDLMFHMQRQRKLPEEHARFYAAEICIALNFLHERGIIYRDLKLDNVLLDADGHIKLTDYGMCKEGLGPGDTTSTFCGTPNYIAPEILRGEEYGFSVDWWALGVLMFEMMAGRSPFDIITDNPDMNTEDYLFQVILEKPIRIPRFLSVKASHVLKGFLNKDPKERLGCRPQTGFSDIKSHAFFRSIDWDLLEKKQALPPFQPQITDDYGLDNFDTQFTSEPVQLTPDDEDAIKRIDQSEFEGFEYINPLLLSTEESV
# Experimental: as §1, §2, §3
# PAK4 = PAK4 (Homo sapiens, UniProt O96013); details: PAK4, 1µM; read-out: %Remaining activity at 1µM NU6300
# Sequence of PAK4 (O96013 whole entry): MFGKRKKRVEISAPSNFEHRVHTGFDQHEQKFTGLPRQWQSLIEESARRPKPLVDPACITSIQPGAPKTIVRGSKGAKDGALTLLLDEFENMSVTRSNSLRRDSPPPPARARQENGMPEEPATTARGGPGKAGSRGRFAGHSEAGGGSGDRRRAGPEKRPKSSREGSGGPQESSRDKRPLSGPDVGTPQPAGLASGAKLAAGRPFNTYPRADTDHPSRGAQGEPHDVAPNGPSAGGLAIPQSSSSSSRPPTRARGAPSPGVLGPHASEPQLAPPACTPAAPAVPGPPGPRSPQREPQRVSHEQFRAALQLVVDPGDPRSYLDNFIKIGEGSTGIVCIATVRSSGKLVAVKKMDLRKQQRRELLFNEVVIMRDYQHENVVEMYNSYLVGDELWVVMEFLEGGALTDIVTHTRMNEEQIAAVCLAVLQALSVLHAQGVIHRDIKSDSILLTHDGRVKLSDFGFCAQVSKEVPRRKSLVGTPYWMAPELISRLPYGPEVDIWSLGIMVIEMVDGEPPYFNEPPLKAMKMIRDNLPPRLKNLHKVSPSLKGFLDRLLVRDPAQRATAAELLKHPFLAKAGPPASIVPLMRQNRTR
# Experimental: as §1, §2, §3
# CDK9-Cyclin T1 = CDK9-Cyclin T1 (Homo sapiens, UniProt P50750); details: CDK9-Cyclin T1, 1µM; read-out: %Remaining activity at 1µM NU6300
# Experimental: as §1, §2, §3
smiles,measurement,setting,value
"C=CS(=O)(=O)c1ccc(Nc2nc(OCC3CCCCC3)c3nc[nH]c3n2)cc1 [NU6300, 6-(cyclohexylmethoxy)-N-(4-(vinylsulfonyl)phenyl)-9H-purin-2-amine]",remaining activity at 1 µM,SmMLCK,85%
same,remaining activity at 1 µM,VEG-FR1,14%
same,remaining activity at 1 µM,MINK1,69%
same,remaining activity at 1 µM,DYRK1A,73%
same,remaining activity at 1 µM,FGF-R1,62%
same,remaining activity at 1 µM,PRK2,50%
same,remaining activity at 1 µM,GSK3β,42%
same,remaining activity at 1 µM,TrkA,59%
same,remaining activity at 1 µM,SGK1,93%
same,remaining activity at 1 µM,JAK2,5%
same,remaining activity at 1 µM,EPH-B3,14%
same,remaining activity at 1 µM,DYRK3,91%
same,remaining activity at 1 µM,PKCζ,100%
same,remaining activity at 1 µM,PAK4,35%
same,remaining activity at 1 µM,CDK9-Cyclin T1,87%
